In data set [1] the test system is apoptosis-related proteins in MCF-7 cells. The data set is described as follows: Western blot of apoptosis-related proteins. It counts as cell-based. The settings on record: 24 h. How it is done: Following treatment, the cells were harvested and stained for PI and annexin V, as described in Example 9. (B) is a bar graph in which the results of three independent experiments (HNK 60 μM, 24 h) are shown. Asterix indicates p<0.05. (C) is a series of photographs of the Western blots in which MCF-7 cells were treated with HNK (20 or 40 μM, 24 h), lysed and analyzed by Western blotting for the expression of apoptosis-related proteins.
Western blot analysis: Cells were harvested and lysed for total protein extraction in a buffer containing 50 mM Tris-Cl pH 7.4, 150 mM NaCl and 2% NP-40 together with a protease inhibitor cocktail (Comp). […] Immunoactivity was detected with horseradish peroxidase-conjugated secondary antibody and visualized by Enhanced Chemiluminescence (Pierce, Rockford, Ill.). Quantification of the results was performed using AlphaImager 2000 (Alpha Innotech, San Leandro, Calif.).
HNK induces apoptosis in breast cancer cell lines. […] MCF-7 cells were treated with HNK (60 μM for six or 24 hours) and apoptosis and cell death were assessed using annexin V and PI staining (FIG. 5 A). […] Upregulation of BAX was also noticed, (85% increase at 40 μM compared to control, as analyzed by densitometry) but no significant changes in BCL-2 or BAD levels were observed. […]
(In general: Immunoblotting shows a protein as a band on a membrane.)

The next data set has as its system KBM-5 cells. The experiment in a line: Annexin V assay. It counts as cell-based, human. Conditions: KBM-5, honokiol 12 h then 1 nM TNF 16 h. The text has this:
(D) depicts that honokiol enhances TNF-induced cell death.
Annexin V assay. One of the early indicators of apoptosis is the rapid translocation and accumulation of the membrane phospholipid phosphatidylserine from the cell's cytoplasmic interface to the extracellular surface. This loss of membrane asymmetry can be detected using the binding properties of annexin V. Annexin V antibody conjugated with the fluorescent dye FITC was used to detect apoptosis. Briefly, 1×10^6 cells were pretreated with […] honokiol for 12 h, treated with 1 nM TNF for 16 h, and then subjected to annexin V staining. Cells were washed, stained with FITC-conjugated anti-annexin V antibody, and then analyzed with a flow cytometer (FACSCalibur; BD Biosciences).
By using caspase-activated PARP cleavage, it was shown that the enhanced cytotoxicity was due to apoptosis. TNF-induced PARP cleavage was enhanced in the honokiol-treated cells (FIG. 26C).

The subject of another data set is BMSCs. It is filed as cell-based, human. Here is the method: MNCs in BM specimens were also used to establish long-term bone marrow stromal cell (BMSC) cultures, as described in, for example, Uchiyama et al Blood. 1993; 82:3712-3720 and Hideshmia et al Oncogene. 2001; 20:4519-4527.
Reagents: Honokiol (HNK; Calbiochem, San Diego, Calif.) was dissolved in ethanol at 20 mg/ml stock solution. Recombinant human interleukin-6 (IL-6), vascular endothelial growth factor (VEGF) and insulin-like growth factor-1 (IGF-1) (R&D Systems, Minneapolis, Minn.) were reconstituted with sterile PBS containing 0.1% FBS (IL-6 and VEGF) and 10 mM of acetic acid containing 0.1% FBS (IGF-1), respectively. Pan-caspase inhibitor z-VAD-fmk (Bachem, Bubendorf, Switzerland) was dissolved in methanol. These reagents were stored at −20° C. and diluted by media just before the use. Doxorubicin (Sigma, St Louis, Mo.) was dissolved in sterile water at the concentration of 3.45 mM. As2O3 (5 mM in PBS) was provided by Cell Therapeutics Inc. (Seattle, Wash.). […] Absorbance readings at a wavelength of 450 nm were taken on a spectrophotometer (Molecular Devices Corp., Sunnyvale, Calif.).
The effect of HNK on MM cells in the presence of exogenous IL-6 and IGF-1, as well as BMSCs was evaluated. […] DNA synthesis was determined by measuring [^3H]-thymidine incorporation during the last 8 h of 48 h cultures. […]

For `C=CCc1ccc(O)c(-c2ccc(O)c(CC=C)c2)c1` [HNK, Honokiol], in data set [1] (MCF-7, 40 μM), the “Upregulation of BAX (densitometry), increase compared to control” value is 85%. Further, the “PARP and caspase 8 levels” value in data set [1] (MCF-7, 20 or 40 μM) was “degradation of poly (ADP-ribose) polymerase (PARP) and decreased levels of caspase 8”. Further, the “TNF-induced early apoptosis (annexin V staining)” value in the data set with KBM-5 cells was “quite effective in enhancing the effects of TNF”. In the data set with BMSCs, the “viability of BMSCs” value was “did not affect the viability of BMSCs”.

Source of the values: patent publication US20080300298A1, “Honokiol Derivates For the Treatment of Proliferative Disorders” (priority 2005, published 2008).
